Measured values reported in publication PMC7838034 (Acta Pharmaceutica Sinica. B, 2020).
Read-outs that look alike come from different tables or passages of the source.

Experiments:
PARP1 = PARP1 (Homo sapiens, UniProt P09874); experiment: PARP1 inhibition assay; type: biochemical; conditions: tested in duplicate, average; for inhibition at 1 µM: read-out: Inhibition rate PARP1, 1 μmol/L; for inhibition at 10 µM: read-out: Inhibition rate PARP1, 10 μmol/L
[1] = target: recombinant BRD4(BD1 + BD2) (Homo sapiens, UniProt O60885); experiment: BRD4 inhibition assay; type: binding; conditions: for inhibition at 1 µM: read-out: Inhibition rate BRD4, 1 μmol/L; for inhibition at 1 µM / inhibition at 10 µM / Inhibition rate BRD4: tested in duplicate, average; for inhibition at 10 µM: read-out: Inhibition rate BRD4, 10 μmol/L
MDA-MB-468 cells [2] = experiment: Cell viability assay; type: cell-based, human; conditions: read-out: Anti-proliferative activity (IC50)
MDA-MB-468 cells [3] = experiment: Annexin V-FITC/PI apoptosis assay; type: cell-based, human; conditions: 1, 3.3 and 10 μmol/L
[4] = Pharmacokinetic study, oral; type: in vivo, Sprague–Dawley rats
[5] = test system: protein expression in MDA-MB-468 cells; experiment: Western blot analysis; type: cell-based, human
MDA-MB-468 cells [6] = experiment: Colony formation assay; type: cell-based, human; conditions: compared with DMSO-treated control
MCF-7 cells = experiment: Annexin V-FITC/PI apoptosis assay; type: cell-based, human
[7] = HE staining of major organs of xenograft mice; type: in vivo, nude mice (BALB/c); conditions: after 19d treatment, all groups of both xenograft models
[8] = test system: BRD4 and PARP1 in MDA-MB-468 tumor tissues; experiment: IHC staining of tumor tissue; type: in vivo, nude mice (BALB/c); conditions: 40 mg/kg, compared with control group
[9] = test system: BRD4 and PARP1 in MCF-7 tumor tissues; experiment: IHC staining of tumor tissue; type: in vivo, nude mice (BALB/c); conditions: 19d treatment groups
MCF-7 tumor xenograft = experiment: MCF-7 breast cancer xenograft model
[10] = test system: MDA-MB-468 tumor xenograft; experiment: MDA-MB-468 breast cancer xenograft model
[11] = male, Sprague-Dawley, rat, plasma, po, 10 mg/kg
[12] = MDA-MB-468 cells, cell viability assay for 24 h

PARP1, sequence (P09874 whole entry): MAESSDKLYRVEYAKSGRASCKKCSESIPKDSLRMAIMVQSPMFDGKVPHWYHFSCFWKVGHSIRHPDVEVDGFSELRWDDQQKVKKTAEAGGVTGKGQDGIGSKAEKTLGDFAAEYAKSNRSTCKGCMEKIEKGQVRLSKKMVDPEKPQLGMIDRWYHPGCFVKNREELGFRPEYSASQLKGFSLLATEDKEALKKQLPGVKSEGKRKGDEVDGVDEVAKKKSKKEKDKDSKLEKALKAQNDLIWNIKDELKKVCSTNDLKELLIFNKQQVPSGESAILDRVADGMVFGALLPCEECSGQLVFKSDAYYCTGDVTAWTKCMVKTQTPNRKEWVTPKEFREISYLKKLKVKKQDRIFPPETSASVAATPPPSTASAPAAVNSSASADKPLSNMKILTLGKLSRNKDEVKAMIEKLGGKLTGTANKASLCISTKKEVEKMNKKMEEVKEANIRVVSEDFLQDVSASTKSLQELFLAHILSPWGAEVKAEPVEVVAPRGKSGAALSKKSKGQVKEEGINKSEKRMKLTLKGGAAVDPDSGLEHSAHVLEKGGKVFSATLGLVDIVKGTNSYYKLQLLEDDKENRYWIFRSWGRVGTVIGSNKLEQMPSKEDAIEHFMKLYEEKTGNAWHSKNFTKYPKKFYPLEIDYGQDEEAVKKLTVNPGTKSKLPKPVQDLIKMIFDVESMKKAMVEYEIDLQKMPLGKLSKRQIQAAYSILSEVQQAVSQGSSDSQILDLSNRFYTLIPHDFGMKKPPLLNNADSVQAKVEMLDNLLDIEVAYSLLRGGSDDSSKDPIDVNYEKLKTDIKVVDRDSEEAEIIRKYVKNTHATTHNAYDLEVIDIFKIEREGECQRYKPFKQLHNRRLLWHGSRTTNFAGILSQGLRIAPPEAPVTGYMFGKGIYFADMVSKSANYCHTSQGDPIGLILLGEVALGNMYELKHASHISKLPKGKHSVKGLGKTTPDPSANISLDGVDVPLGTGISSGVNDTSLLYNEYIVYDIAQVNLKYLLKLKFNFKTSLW

Compound	inhibition at 1 µM (PARP1) [%]	inhibition at 10 µM (PARP1) [%]	inhibition at 1 µM [1] [%]	inhibition at 10 µM [1] [%]	IC50 (MDA-MB-468 cells [2]; Homo sapiens, MDA-MB-468, 24 h) [µM]	further results
COc1cc(OC)c2c(=O)[nH]c(-c3ccc(OCCOc4ccccc4C(N)=O)cc3)nc2c1 [Compound 19d, 2-(2-(4-(5,7-Dimethoxy-4-oxo-3,4-dihydroquinazolin-2-yl)phenoxy)ethoxy)benzamide]	37	88	69	92	3.4 ± 1.1	improved efficacy against BRD4 than RVX-208 ([1]; ratio of BRD4 IC50 values): > 30 fold; apoptosis induction (MDA-MB-468 cells [3]): induced apoptosis in a dose-dependent manner; AUC0−∞ ([4]; SD rats, p.o. 10 mg/kg, n = 3, mean ± SD): 0.14472 ± 0.02551 µg·h/mL; AUC(0-t) [4, 11]: 0.114 ± 0.0158 µg·h/mL; MRT inf [4, 11]: 5.35 ± 0.44 h; PAR expression ([5]; 2 μmol/L, 24 h): effective downregulation; c-Myc expression ([5]; 2 μmol/L, 24 h): higher c-Myc inhibition efficiency than RVX-208; BAX and active form of caspase-3 expression ([5]; 1, 3.3 and 10 μmol/L): increased; BCL-2 expression ([5]; 1, 3.3 and 10 μmol/L): remarkably downregulated; expression of c-Myc and PAR ([5]; 1, 3.3 and 10 μmol/L, 24 h): decreased the expression of c-Myc and PAR in a dose-dependent manner; colony counts (MDA-MB-468 cells [6]): remarkably decreased the colony counts; apoptosis induction (MCF-7 cells): no significant changes; histological changes in major organs (HE) [7]: no visible histological changed; expression levels of BRD4 and PARP1 in tumor tissues [8]: effectively suppressed; expression levels of BRD4 and PARP1 in tumor tissues [9]: slightly downregulated; TGI rate (MCF-7 tumor xenograft; 80 mg/kg oral, once a day): 48.3%; toxicity (body weight) of the dosages used (MCF-7 tumor xenograft; 20, 40 and 80 mg/kg oral): no apparent toxicity; tumor growth inhibition (TGI) ([10]; 80 mg/kg oral, once a day): 55.3%; body weight change and death during treatment ([10]; 20, 40 and 80 mg/kg oral): slight body weight change and no death of mice
COc1cc(OC)c2c(=O)[nH]c(-c3cc(C)c(OCCOn4nnc5ccccc54)c(C)c3)nc2c1 [Compound 19i, 2-(4-(2-((1H-Benzo[d][1,2,3]triazol-1-yl)oxy)ethoxy)-3,5-dimethylphenyl)-5,7-dimethoxyquinazolin-4(3H)-one]	11	18	18	61	> 30	
2-(4-Chloro-2-(2-((3a,7a-dihydro-1H-benzo[d][1,2,3]triazol-1-yl)oxy)ethoxy)phenyl)-5,7-dimethoxyquinazolin-4(3H)-one [Compound 19r]						Inhibition rate PARP1 (PARP1; 1 μmol/L): 4%; Inhibition rate PARP1 (PARP1; 10 μmol/L): 6%; Inhibition rate BRD4 ([1]; 1 μmol/L): 17%; Inhibition rate BRD4 ([1]; 10 μmol/L): 77%; IC50 (MDA-MB-468 cells [2]; [12]): > 30 µM
2-(2-(2-((3a,7a-Dihydro-1H-benzo[d][1,2,3]triazol-1-yl)oxy)ethoxy)-4-methoxyphenyl)-5,7-dimethoxyquinazolin-4(3H)-one [Compound 19q]						Inhibition rate PARP1 (PARP1; 1 μmol/L): 3%; Inhibition rate PARP1 (PARP1; 10 μmol/L): 2%; Inhibition rate BRD4 ([1]; 1 μmol/L): 11%; Inhibition rate BRD4 ([1]; 10 μmol/L): 80%; IC50 (MDA-MB-468 cells [2]; [12]): 24.2 ± 2.2 µM
COc1cc(OC)c2c(=O)[nH]c(-c3cc(OC)c(OCCOc4ccc5cn[nH]c5c4)c(OC)c3)nc2c1 [Compound 19n, 2-(4-(2-((1H-Indazol-6-yl)oxy)ethoxy)-3,5-dimethoxyphenyl)-5,7-dimethoxyquinazolin-4(3H)-one]	9	16	14	45	> 30	
COc1cc(OC)c2c(=O)[nH]c(-c3ccc(OCCOn4nnc5ccccc54)c(Cl)c3)nc2c1 [Compound 19p, 2-(4-(2-((1H-Benzo[d][1,2,3]triazol-1-yl)oxy)ethoxy)-3-chlorophenyl)-5,7-dimethoxyquinazolin-4(3H)-one]	3	6	3	44	> 30	
COc1cc(OC)c2c(=O)[nH]c(-c3cc(Cl)ccc3OCCCCCOc3ccccc3C(N)=O)nc2c1 [Compound 19e, 2-((5-(4-Chloro-2-(5,7-dimethoxy-4-oxo-3,4-dihydroquinazolin-2-yl)phenoxy)pentyl)oxy)benzamide]	18	71	4	55	15.3 ± 3.6	
COc1cc(OC)c2c(=O)[nH]c(-c3cc(C)c(OCCOc4ccccc4C(N)=O)c(C)c3)nc2c1 [Compound 19f, 2-(2-(4-(5,7-Dimethoxy-4-oxo-3,4-dihydroquinazolin-2-yl)-2,6-dimethylphenoxy)ethoxy)benzamide]	40	79	11	74	8.4 ± 1.3	
COc1cc(OC)c2c(=O)[nH]c(-c3cc(Cl)ccc3OCCCOc3ccccc3C(N)=O)nc2c1 [Compound 19b, 2-(3-(4-Chloro-2-(5,7-dimethoxy-4-oxo-3,4-dihydroquinazolin-2-yl)phenoxy)propoxy)benzamide]	35	81	3	69	10.9 ± 0.5	
COc1cc(OC)c2c(=O)[nH]c(-c3ccc(OCCOc4ccccc4C(N)=O)c(F)c3)nc2c1 [Compound 19h, 2-(2-(4-(5,7-Dimethoxy-4-oxo-3,4-dihydroquinazolin-2-yl)-2-fluorophenoxy)ethoxy)benzamide]	31	65	12	62	11.8 ± 3.4	
COc1cc(OC)c2c(=O)[nH]c(-c3ccc(OCCOn4nnc5ccccc54)cc3)nc2c1 [Compound 19k, 2-(4-(2-((1H-Benzo[d][1,2,3]triazol-1-yl)oxy)ethoxy)phenyl)-5,7-dimethoxyquinazolin-4(3H)-one]	7	29	13	83	22.9 ± 2.4	
COc1cc(OC)c2c(=O)[nH]c(-c3ccc(OCCOn4nnc5ccccc54)c(F)c3)nc2c1 [Compound 19l, 2-(4-(2-((1H-Benzo[d][1,2,3]triazol-1-yl)oxy)ethoxy)-3-fluorophenyl)-5,7-dimethoxyquinazolin-4(3H)-one]	1	14	29	80	23.7 ± 3.3	

Further lines, with some results ahead:

inhibition at 1 µM (PARP1) [%]	inhibition at 10 µM (PARP1) [%]	inhibition at 1 µM [1] [%]	inhibition at 10 µM [1] [%]	IC50 (MDA-MB-468 cells [2]; Homo sapiens, MDA-MB-468, 24 h) [µM]	Compound	further results
1	4	20	60	> 30	COc1cc(OC)c2c(=O)[nH]c(-c3cc(C)c(OCCO)c(C)c3)nc2c1 [RVX-208, reference compound]	
36	81	6	77	6.7 ± 2.4	COc1cc(OC)c2c(=O)[nH]c(-c3ccc(OCCOc4ccncc4C(N)=O)cc3)nc2c1 [Compound 19u, 4-(2-(4-(5,7-Dimethoxy-4-oxo-3,4-dihydroquinazolin-2-yl)phenoxy)ethoxy)nicotinamide]	
12	65	8	74	8.7 ± 5.2	COc1cc(OC)c2c(=O)[nH]c(-c3cc(F)ccc3OCCOc3ccccc3C(N)=O)nc2c1 [Compound 19s, 2-(2-(2-(5,7-Dimethoxy-4-oxo-3,4-dihydroquinazolin-2-yl)-4-fluorophenoxy)ethoxy)benzamide]	
1	25	9	67	> 30	COc1cc(OC)c2c(=O)[nH]c(-c3ccc(OCCOc4ccc5nc[nH]c(=O)c5c4)cc3)nc2c1 [Compound 19t, 5,7-Dimethoxy-2-(4-(2-((4-oxo-3,4-dihydroquinazolin-6-yl)oxy)ethoxy)phenyl)quinazolin-4(3H)-one]	
